Measured values as given in ChEMBL document CHEMBL1201862, “PubChem BioAssay data set” (2004).
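Method: 48-hour compound exposure of cells in 96-well plates, five concentrations, linear interpolation of endpoints. GI50 = concentration required for 50% inhibition of growth.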 Activity calls are given as the source filed them. Cut-off read from the data, not from the text of the source: active = GI50 up to about 1.1 µM and inactive = higher.

Tests used:
Experiment in all cases: DTP human tumour cell line panel, 48 h
OVCAR-3 = system: OVCAR-3
OVCAR-5 = system: OVCAR-5
UACC-62 = system: UACC-62
HT-29 = system: HT-29
NCI-H460 = system: NCI-H460
SNB-19 = system: SNB-19
K562 = system: K562
Malme-3M = system: Malme-3M
OVCAR-8 = system: OVCAR-8
SK-MEL-5 = system: SK-MEL-5
M14 = system: M14
U-251 = system: U-251
OVCAR-4 = system: OVCAR-4
IGROV-1 = system: IGROV-1
RPMI-8226 = system: RPMI-8226
LOX IMVI = system: LOX IMVI
COLO 205 = system: COLO 205
CAKI-1 = system: CAKI-1
HCT-116 = system: HCT-116

Measured: GI50

C/N=C(\N)c1ccc(NC(=N)c2ccc(C(=N)Nc3ccc(/C(N)=N/C)cc3)cc2)cc1
inactive: OVCAR-3 > 100 µM | OVCAR-5 > 100 µM | UACC-62 > 100 µM | HT-29 > 100 µM | NCI-H460 > 100 µM | SNB-19 > 100 µM | K562 > 100 µM | Malme-3M > 100 µM | OVCAR-8 > 100 µM | SK-MEL-5 > 100 µM | M14 > 100 µM | U-251 > 100 µM | OVCAR-4 > 100 µM | IGROV-1 > 100 µM | RPMI-8226 > 100 µM | LOX IMVI > 100 µM | COLO 205 > 100 µM | CAKI-1 > 100 µM

O=C(O)CCNS(=O)(=O)c1ccc2ccccc2c1
inactive: OVCAR-3 > 100 µM | OVCAR-5 > 100 µM | UACC-62 > 100 µM | HT-29 > 100 µM | NCI-H460 > 100 µM | SNB-19 > 100 µM | K562 > 100 µM | Malme-3M > 100 µM | OVCAR-8 > 100 µM | SK-MEL-5 > 100 µM | M14 > 100 µM | U-251 > 100 µM | OVCAR-4 > 100 µM | IGROV-1 > 100 µM | RPMI-8226 > 100 µM | LOX IMVI > 100 µM | COLO 205 > 100 µM | CAKI-1 > 100 µM

CCOC(=O)NC(OC)(C(F)(F)F)C(F)(F)F
inactive: OVCAR-3 > 100 µM | UACC-62 > 100 µM | HCT-116 > 100 µM | HT-29 > 100 µM | NCI-H460 > 100 µM | SNB-19 > 100 µM | K562 > 100 µM | Malme-3M > 100 µM | OVCAR-8 > 100 µM | SK-MEL-5 > 100 µM | M14 > 100 µM | U-251 > 100 µM | OVCAR-4 > 100 µM | IGROV-1 > 100 µM | RPMI-8226 > 100 µM | LOX IMVI > 100 µM | COLO 205 > 100 µM | CAKI-1 > 100 µM

Cc1ccc2nc(NC(=O)/C(=N\NC(=S)NN)C3C(=O)NC(=S)NC3=O)sc2c1
inactive: OVCAR-5 > 100 µM | UACC-62 > 100 µM | HCT-116 > 100 µM | HT-29 > 100 µM | NCI-H460 > 100 µM | SNB-19 > 100 µM | K562 > 100 µM | Malme-3M > 100 µM | OVCAR-8 > 100 µM | SK-MEL-5 > 100 µM | M14 > 100 µM | U-251 > 100 µM | OVCAR-4 > 100 µM | IGROV-1 > 100 µM | RPMI-8226 > 100 µM | LOX IMVI > 100 µM | COLO 205 > 100 µM | CAKI-1 > 100 µM

COc1cc(C(Cc2ccccc2)NC(C)=O)oc(=O)c1 (stereo not drawn)
inactive: OVCAR-3 > 100 µM | OVCAR-5 > 100 µM | UACC-62 > 100 µM | HT-29 > 100 µM | NCI-H460 > 100 µM | SNB-19 > 100 µM | K562 > 100 µM | Malme-3M > 100 µM | OVCAR-8 > 100 µM | SK-MEL-5 > 100 µM | M14 > 100 µM | U-251 > 100 µM | OVCAR-4 > 100 µM | IGROV-1 > 100 µM | RPMI-8226 > 100 µM | LOX IMVI > 100 µM | COLO 205 > 100 µM | CAKI-1 > 100 µM

COc1ccc(C2C(C(=O)O)=C(COC(C)=O)Oc3cc4c(cc32)OCO4)c(OC)c1 (stereo not drawn)
inactive: OVCAR-3 > 100 µM | UACC-62 > 100 µM | HCT-116 > 100 µM | HT-29 > 100 µM | NCI-H460 > 100 µM | SNB-19 > 100 µM | K562 > 100 µM | Malme-3M > 100 µM | OVCAR-8 > 100 µM | SK-MEL-5 > 100 µM | M14 > 100 µM | U-251 > 100 µM | OVCAR-4 > 100 µM | IGROV-1 > 100 µM | RPMI-8226 > 100 µM | LOX IMVI > 100 µM | COLO 205 > 100 µM | CAKI-1 > 100 µM
